Columns and labels:
PKR WT = PKR WT (Homo sapiens, UniProt P30613); experiment: PKR enzyme assay (WT), LDH-coupled, absorbance 340 nm; assay type: biochemical; settings: wild type PKR enzyme activation
Method: (§1) PKR (WT or mutant) enzyme stock solution was diluted to prepare a 1.25× Reaction Mix (without ADP). 1 μL of test compound was first added to the wells followed by 40 μL of 1.25× Reaction Mix (without ADP) and incubated at room temperature (25° C.) for 60 min. The reaction was initiated with 10 μL ADP, bringing the final Reaction Mix to 1x, and the reaction progress was measured as changes in absorbance at 340 nm wavelength at room temperature.
(§2) Test compound preparation: Test compounds were prepared at 50× final concentration in DMSO. 1 to 3 dilutions were made for 11 points (for example 50 μL of 5000 μM compound was added to 100 μL 100% DMSO to yield a 1667 μM, 50 μL of this added to 100 μL DMSO to yield 556 μM, and so forth). The compounds were added to the assay as a 1 to 50 dilution (1 μL in 50 μL) to yield a top concentration of 100 μM, decreasing 3-fold for 11 points.
(§3) Reaction Mix: PKR (1.25-1000 ng/well, 0.025-20 μg/ml depending on the PKR mutant), ADP (0.05-2.3 mM depending on the PKR mutant), PEP (0.031-2 mM depending on the PKR mutant), NADH (180 μM), LDH (0.005 U/μL, Sigma #L3888), 1 mM DTT, 0.03% BSA in 1× Reaction Buffer
(§4) Reaction Buffer: 100 mM KCl, 50 mM Tris pH 7.5, 5 mM MgCl2.

PKR K410E = PKR K410E (Homo sapiens, UniProt P30613, K410E); experiment: PKR Mutant Assay (K410E), LDH-coupled, absorbance 340 nm; assay type: biochemical; settings: mutant PKR K410E enzyme activation
PKR K410E, sequence (P30613 whole entry K410E): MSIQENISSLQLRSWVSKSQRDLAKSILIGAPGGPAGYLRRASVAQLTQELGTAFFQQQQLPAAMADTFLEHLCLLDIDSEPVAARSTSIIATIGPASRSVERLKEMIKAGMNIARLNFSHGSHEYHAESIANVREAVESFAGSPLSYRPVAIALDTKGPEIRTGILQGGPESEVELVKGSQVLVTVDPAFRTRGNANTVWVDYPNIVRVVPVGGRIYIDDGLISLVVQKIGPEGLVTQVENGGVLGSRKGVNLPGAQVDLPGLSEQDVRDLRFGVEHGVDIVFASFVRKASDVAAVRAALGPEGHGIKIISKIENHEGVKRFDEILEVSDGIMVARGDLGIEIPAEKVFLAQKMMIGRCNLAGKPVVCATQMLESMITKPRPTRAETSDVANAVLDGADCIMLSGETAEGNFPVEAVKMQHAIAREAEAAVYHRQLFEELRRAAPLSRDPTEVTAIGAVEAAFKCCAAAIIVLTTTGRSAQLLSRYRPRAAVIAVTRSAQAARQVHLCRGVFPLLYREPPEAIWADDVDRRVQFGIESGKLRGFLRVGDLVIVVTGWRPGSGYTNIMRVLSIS
Method: as §1, §2, §3, §4

PK R510Q = PK R510Q (Homo sapiens, UniProt P30613, R510Q); experiment: PKR Mutant Assay (R510Q), LDH-coupled, absorbance 340 nm; assay type: biochemical; settings: mutant PKR R510Q enzyme activation
PK R510Q, sequence (P30613 whole entry R510Q): as the sequence (P30613 whole entry K410E) above, with E410K, R510Q counted along it
Method: as §1, §2, §3, §4

PKM2 WT = PKM2 WT (Homo sapiens, UniProt P14618); experiment: PKM2 Assay, LDH-coupled, absorbance 340 nm; assay type: biochemical; settings: wild type PKM2 enzyme activation
PKM2 WT, sequence (P14618 whole entry): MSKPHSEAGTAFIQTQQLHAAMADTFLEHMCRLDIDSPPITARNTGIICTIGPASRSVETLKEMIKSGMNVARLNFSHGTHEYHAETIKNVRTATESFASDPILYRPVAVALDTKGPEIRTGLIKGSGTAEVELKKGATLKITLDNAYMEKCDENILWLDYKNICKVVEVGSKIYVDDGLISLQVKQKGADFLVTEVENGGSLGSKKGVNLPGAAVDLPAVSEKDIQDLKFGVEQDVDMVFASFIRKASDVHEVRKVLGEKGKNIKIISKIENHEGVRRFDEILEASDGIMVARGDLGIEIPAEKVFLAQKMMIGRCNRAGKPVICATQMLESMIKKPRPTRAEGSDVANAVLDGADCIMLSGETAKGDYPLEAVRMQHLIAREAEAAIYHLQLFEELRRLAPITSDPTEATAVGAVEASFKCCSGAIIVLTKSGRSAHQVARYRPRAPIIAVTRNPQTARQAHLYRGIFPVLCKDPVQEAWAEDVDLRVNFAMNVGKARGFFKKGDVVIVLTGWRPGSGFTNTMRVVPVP
Method: as §1, with “PKM2” for “PKR (WT or mutant)”, “ADP (0.4 mM final concentration),” for “ADP,”
as §2
Reaction Mix: PKM2 (5 ng/well, 0.1 μg/ml), ADP (0.4 mM), PEP (0.11 mM), NADH (180 μM), LDH (0.005 U/μL, Sigma #L3888), 1 mM DTT, 0.03% BSA in 1×
as §4

RBCs = experiment: Cell Based ATP Assay in purified red blood cells (Cell-Titer-Glo); design: species or system human; settings: wild type PKR, ATP levels in RBCs, overnight at 37° C.
Method: Fresh blood drawn from healthy volunteers into K2EDTA tubes was collected. Whole blood was pelleted by spinning at 500 g for 10 minutes. The transfusion bag port was cut off Purecell leukocyte reduction neofilter (Fisher NC0267633) one (1) inch above filter. A 10 ml syringe barrel was attached to the remaining cut tubing attached to the neofilter. The plasma layer was removed from the pellet of the whole blood and the pellet was resuspended in 2× volume of phosphate buffered saline (PBS). 9 ml re-suspended blood cell pellet was transferred to a 10 ml syringe that was attached to the neofilter. The whole blood was allowed to gravity flow through filter until all fluid ran through upper tubing into a filter disc. The plunger was added to the syringe. The filter was inverted and air was plunged through the syringe filter system. A new 5 ml syringe was used to remove filtered RBCs from the bag by the syringe port. Purified RBCs were transferred to a 5 ml snap cap tube that had been incubated on ice. The 5 ml snap cap tube was spun at 500 g for 10 minutes at 15 C. Supernatant was aspirated and resuspended in AGAM (1×PBS, 1% glucose, 170 mg/L adenine, 5.25 g/L mannitol) at a density of 4×10^9 cells/mL.
For cell based ATP assays, the compound as described herein was prepared in 100% DMSO as a 10 mM stock. Serial dilutions (1:4) were performed in 96-well V-bottom storage plate and then added 1:100 to 96-well V-bottom plates containing AGAM. 10 μL/well of compound diluted in AGAM was added to black clear bottom assay plates. RBCs were diluted in AGAM media to a density of 1×10^7 cells/mL before added 90 μL/well to black clear bottom assay plates (final compound concentration at 0.1% DMSO concentration). Assay plates were sealed using aluminum foil seals and incubated overnight at 37° C. in a humidified chamber. ATP levels were read out using Cell-Titer-Glo (Promega).

PKM2 = PKM2 (Mus musculus, UniProt P52480); settings: in vivo; cited from earlier work
PKM2, sequence (P52480 whole entry): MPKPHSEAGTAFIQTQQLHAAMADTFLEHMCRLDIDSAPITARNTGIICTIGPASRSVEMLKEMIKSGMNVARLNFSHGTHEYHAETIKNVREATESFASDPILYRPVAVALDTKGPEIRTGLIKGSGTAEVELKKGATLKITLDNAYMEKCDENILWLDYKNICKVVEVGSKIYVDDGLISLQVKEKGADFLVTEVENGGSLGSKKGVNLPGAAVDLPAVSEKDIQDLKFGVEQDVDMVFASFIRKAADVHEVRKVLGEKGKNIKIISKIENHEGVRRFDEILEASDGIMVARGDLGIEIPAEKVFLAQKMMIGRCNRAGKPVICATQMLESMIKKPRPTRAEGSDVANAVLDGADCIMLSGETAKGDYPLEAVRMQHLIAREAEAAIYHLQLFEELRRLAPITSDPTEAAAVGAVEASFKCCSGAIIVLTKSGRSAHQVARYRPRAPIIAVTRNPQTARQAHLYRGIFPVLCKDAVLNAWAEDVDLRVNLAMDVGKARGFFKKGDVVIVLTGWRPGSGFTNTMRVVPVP

PKR WT, sequence (P30613 whole entry): as the sequence (P30613 whole entry K410E) above, with E410K counted along it

Structure (SMILES)	AC50 (PKR WT)	AC50 (PKR K410E)	AC50 (PK R510Q)	AC50 (PKM2 WT)	PKR WT AC50 (PKR WT)	PKR K410E AC50 (PKR K410E)	PK R510Q AC50 (PK R510Q)	Cell based ATP assay AC50 (RBCs)	AC50 (RBCs; Homo sapiens, Erythrocyte)	LPS and IL-1β production (PKM2)	production of IL-10 (PKM2)
COc1cccc(Cn2ncc3c4oc(C)nc4n(C)c3c2=O)c1 [Cpd 3]	> 0.8 µM	> 0.8 µM	> 0.8 µM	0.301 to 0.8 µM	–	–	–	–	–	–	–
Cn1c2ccc(S(C)(=O)=O)cc2c2cnn(Cc3cccc(C(N)=O)c3)c(=O)c21 [Cpd 52]	> 0.8 µM	> 0.8 µM	> 0.8 µM	0.301 to 0.8 µM	–	–	–	No Fit	–	–	–
COc1cccc(Cc2ccc3c4sc(C)cc4n(C)c3c2)c1 [Cpd 2]	–	–	–	> 0.8 µM	No Fit	No Fit	No Fit	–	–	–	–
COc1cccc(Cn2ncc3c4cccc(Cc5ccccc5)c4n(C)c3c2=O)c1 [Cpd 59]	> 0.8 µM	> 0.8 µM	–	> 0.8 µM	–	–	No Fit	–	–	–	–
COc1cccc(Cn2ncn3c(c(C)c4nc(C)sc43)c2=O)c1 [Cpd 25]	> 0.8 µM	> 0.8 µM	> 0.8 µM	> 0.8 µM	–	–	–	No Fit	–	–	–
Cn1ccc(Cn2ncc3c4cc(Cc5cscn5)ccc4n(C)c3c2=O)n1 [Cpd 31]	> 0.8 µM	> 0.8 µM	> 0.8 µM	> 0.8 µM	–	–	–	–	> 1 µM	–	–
COc1cccc(Cn2ncc3c4n[nH]cc4n(C)c3c2=O)c1 [Cpd 29]	> 0.8 µM	> 0.8 µM	> 0.8 µM	> 0.8 µM	–	–	–	–	–	–	–
COc1cccc(Cn2ncc3c4sc(Cc5ccccc5)cc4n(C)c3c2=O)c1 [Cpd 4]	< 0.3 µM	< 0.3 µM	< 0.3 µM	< 0.3 µM	–	–	–	–	–	–	–
Cn1cc(Cc2ccc3c(c2)c2cnn(Cc4cccc(C(N)=O)c4)c(=O)c2n3C)cn1 [Cpd 35]	–	–	–	0.301 to 0.8 µM	No Fit	No Fit	No Fit	No Fit	–	–	–
Cc1nc2c3cnn(Cc4ccccc4)c(=O)c3n(C)c2s1 [Cpd 26]	> 0.8 µM	> 0.8 µM	> 0.8 µM	> 0.8 µM	–	–	–	No Fit	–	–	–
Cn1c2cc([S+](C)[O-])sc2c2cnn(Cc3cccc(N)c3)c(=O)c21 (stereo not shown) [TEPP-46]	–	–	–	–	–	–	–	–	–	inhibited	boosting
COc1cccc(Cn2ncc3c4c(Cc5ccccc5)cccc4n(C)c3c2=O)c1 [Cpd 61]	–	–	–	> 0.8 µM	No Fit	No Fit	No Fit	–	–	–	–
Cn1c2ccc([S+](C)[O-])cc2c2cnn(Cc3cccc(C(N)=O)c3)c(=O)c21 (stereo not shown) [Cpd 51]	> 0.8 µM	> 0.8 µM	> 0.8 µM	> 0.8 µM	–	–	–	No Fit	–	–	–
COc1cccc(CN2Cc3c(n(C)c4cc(C)sc34)C2=O)c1 [Cpd 1]	> 0.8 µM	> 0.8 µM	> 0.8 µM	> 0.8 µM	–	–	–	–	–	–	–
Cn1cc(Cc2ccc3c4cnn(Cc5cccc(C(N)=O)c5)c(=O)c4n(C)c3c2)cn1 [Cpd 62]	> 0.8 µM	> 0.8 µM	> 0.8 µM	0.301 to 0.8 µM	–	–	–	No Fit	–	–	–

Further lines, with some results ahead:

AC50 (PKR WT)	AC50 (PKR K410E)	AC50 (PK R510Q)	AC50 (PKM2 WT)	PKR WT AC50 (PKR WT)	PKR K410E AC50 (PKR K410E)	PK R510Q AC50 (PK R510Q)	Structure (SMILES)	Cell based ATP assay AC50 (RBCs)	AC50 (RBCs; Homo sapiens, Erythrocyte)	LPS and IL-1β production (PKM2)	production of IL-10 (PKM2)
> 0.8 µM	> 0.8 µM	0.301 to 0.8 µM	0.301 to 0.8 µM	–	–	–	COc1cccc(Cn2ncc3c4cccnc4n(C)c3c2=O)c1 [Cpd 66]	–	–	–	–
> 0.8 µM	> 0.8 µM	> 0.8 µM	0.301 to 0.8 µM	–	–	–	COc1cccc(Cn2ncc3c4cc(Br)ccc4n(C)c3c2=O)c1 [Cpd 36]	–	–	–	–
–	–	–	> 0.8 µM	No Fit	No Fit	No Fit	CNC(=O)c1ccc2c(c1)c1cnn(Cc3cccc(OC)c3)c(=O)c1n2C [Cpd 38]	–	–	–	–
> 0.8 µM	> 0.8 µM	> 0.8 µM	> 0.8 µM	–	–	–	COc1cccc(Cn2ncc3c4c(Br)cccc4n(C)c3c2=O)c1 [Cpd 32]	–	–	–	–
> 0.8 µM	> 0.8 µM	> 0.8 µM	> 0.8 µM	–	–	–	COc1cccc(Cn2ncc3c4nn(C)cc4n(C)c3c2=O)c1 [Cpd 30]	–	–	–	–
> 0.8 µM	> 0.8 µM	> 0.8 µM	< 0.3 µM	–	–	–	COc1cccc(Cn2ncc3c4cc(C#N)ccc4n(C)c3c2=O)c1 [Cpd 45]	–	–	–	–
> 0.8 µM	> 0.8 µM	> 0.8 µM	> 0.8 µM	–	–	–	CCc1ccc2c3cnn(Cc4cccc(OC)c4)c(=O)c3n(C)c2c1 [Cpd 43]	–	–	–	–
> 0.8 µM	> 0.8 µM	> 0.8 µM	0.301 to 0.8 µM	–	–	–	COc1cccc(Cn2ncc3c4cc(O)ccc4n(C)c3c2=O)c1 [Cpd 48]	–	–	–	–
> 0.8 µM	> 0.8 µM	> 0.8 µM	> 0.8 µM	–	–	–	COc1cccc(Cn2ncc3c4ncccc4n(C)c3c2=O)c1 [Cpd 65]	–	–	–	–
> 0.8 µM	> 0.8 µM	> 0.8 µM	> 0.8 µM	–	–	–	COc1cccc(Cn2ncc3c4cc(Cc5ccccc5)ccc4n(C)c3c2=O)c1 [Cpd 34]	–	–	–	–
> 0.8 µM	–	–	< 0.3 µM	–	No Fit	No Fit	CNC(=O)c1ccc2c3cnn(Cc4cccc(OC)c4)c(=O)c3n(C)c2c1 [Cpd 41]	–	–	–	–
> 0.8 µM	> 0.8 µM	> 0.8 µM	> 0.8 µM	–	–	–	COC(=O)c1ccc2c(c1)c1cnn(Cc3cccc(OC)c3)c(=O)c1n2C [Cpd 37]	–	–	–	–
–	> 0.8 µM	–	> 0.8 µM	No Fit	–	No Fit	COc1cccc(Cn2ncc3c4c(C)cccc4n(C)c3c2=O)c1 [Cpd 46]	–	–	–	–
> 0.8 µM	> 0.8 µM	> 0.8 µM	> 0.8 µM	–	–	–	C=Cc1ccc2c3cnn(Cc4cccc(OC)c4)c(=O)c3n(C)c2c1 [Cpd 42]	–	–	–	–
> 0.8 µM	> 0.8 µM	0.301 to 0.8 µM	0.301 to 0.8 µM	–	–	–	COc1cccc(Cn2ncc3c4ccc(Cc5ccccc5)cc4n(C)c3c2=O)c1 [Cpd 60]	–	–	–	–
> 0.8 µM	> 0.8 µM	> 0.8 µM	> 0.8 µM	–	–	–	C=Cc1ccc2c(c1)c1cnn(Cc3cccc(OC)c3)c(=O)c1n2C [Cpd 39]	–	–	–	–
> 0.8 µM	> 0.8 µM	> 0.8 µM	0.301 to 0.8 µM	–	–	–	COc1cccc(Cn2ncc3c4cc(CO)ccc4n(C)c3c2=O)c1 [Cpd 44]	–	–	–	–

From US20220127267A1, “THIENO[3,2-B] PYRROLE[3,2-D]PYRIDAZINONE DERIVATIVES AND THEIR USE AS PKM2 DERIVATIVES FOR THE TREATMENT OF CANCER, OBESITY AND DIABETES RELATED DISORDERS” (Agios Pharmaceuticals, Inc., priority 2019, published 2022)
